According to patent publication US20240368181A1, “QUINOXALINE DERIVATIVES AND USES THEREOF” (Black Diamond Therapeutics, Inc., priority 2021, published 2024):
pIC50: −log10 of the molar value.

Legend:
Format in all cases: cell-based
[1] = test system: SNU-16 (FGFR2-amplification) cells; assay: cell proliferation assay (CellTiterGlo), SNU-16 cells; settings: 72 hours
Text: (§1) In some embodiments, the biological assay assess the ability of the compounds to inhibit cell proliferation.
(§2) In some embodiments, cells (e.g., SNU-16 (FGFR2-amplification) cells) may be suspended and dispensed in plates. In some embodiments, cells (e.g., UM-UC-14 (FGFR3-S249C) cells) may be suspended and dispensed in plates. In some embodiments, cells (e.g., DMS-114 (FGFR1 overexpression) cells) may by suspended and dispensed in plates. In some embodiments, cells (e.g., RT-112 (FGFR3-Tacc3 fusion) cells) may be suspended and dispensed in plates. In some embodiments, to determine the effect of the compounds of the present disclosure on cell proliferation, cells (e.g., SNU-16, UM-UC-14, DMS-114 and […] cells) may be incubated in the presence of vehicle control (e.g., DMSO) or a compound of the present disclosure at varying concentrations and the inhibition of cell growth may be determined by luminescent quantification (e.g., of intracellular ATP content using CellTiterGlo), according to the manufacturers protocol. In some embodiments, to determine the IC50 values, the vehicle-treated cells were normalized as viable cells and the growth was analyzed using a software (e.g., the CDD Vault software (Collaborative Drug Discovery, Burlingame, CA)).

[2] = test system: UM-UC-14 (FGFR3-S249C) cells; assay: cell proliferation assay (CellTiterGlo), UM-UC-14 cells
Text: as §1, §2

[3] = test system: DMS-114 (FGFR1 overexpression) cells; assay: cell proliferation assay (CellTiterGlo), DMS-114 cells
Text: as §1, §2

[4] = test system: RT-112 (FGFR3-Tacc3 fusion) cells; assay: cell proliferation assay (CellTiterGlo), RT-112 cells; settings: 72 hours
Text: as §1, §2

[5] = Homo sapiens, RT-112, RT112 cells

Row | SMILES | pIC50 ([1]; Homo sapiens) | pIC50 [1] | pIC50 ([2]; UMUC14, 72 h) | pIC50 ([3]; Homo sapiens, DMS-114, 72 h) | pIC50 [4, 5] | pIC50 ([3]; 72 hours) | pIC50 ([2]; 72 hours) | pIC50 ([4]; RT112 cells)
1 | Cc1nc2ccc(Oc3ccc4ncc(-c5cnn(CC(C)(O)C(F)(F)F)c5)nc4c3Cl)c(F)c2[nH]1 (stereo not shown) [Compound 122] | 7.00 to 7.70 | – | 7.00 to 7.70 | ≤ 6.40 | 7.00 to 7.70 | – | – | –
2 | Cc1nc2ccc(Oc3ccc4ncc(-c5cnn([C@H]6CC7(C[C@@H](O)C7)C6)c5)nc4c3Cl)cc2[nH]1 (stereo partly shown) [Compound 123] | 7.00 to 7.70 | – | > 7.70 | – | 7.00 to 7.70 | 6.40 to 7.00 | – | –
3 | Cc1nc2ccc(Oc3ccc4ncc(-c5cnn([C@H]6CC7(C[C@@H](O)C7)C6)c5)nc4c3Cl)cc2[nH]1 (stereo partly shown) [Compound 124] | – | 7.00 to 7.70 | – | – | – | ≤ 6.40 | 7.00 to 7.70 | 7.00 to 7.70
4 | Cc1nc2ccc(Oc3ccc4ncc(-c5cnn([C@H](C)CO)c5)nc4c3Cl)cc2[nH]1 [Compound 126] | 7.00 to 7.70 | – | 7.00 to 7.70 | 6.40 to 7.00 | 7.00 to 7.70 | – | – | –
5 | Cc1nc2ccc(Oc3ccc4ncc(-c5cnn([C@H]6CC7(C[C@@H](O)C7)C6)c5)nc4c3Cl)c(F)c2[nH]1 (stereo partly shown) [Compound 127] | > 7.70 | – | > 7.70 | 6.40 to 7.00 | > 7.70 | – | – | –
6 | Cc1nc2ccc(Oc3ccc4ncc(-c5cnn([C@H]6CC7(C[C@@H](O)C7)C6)c5)nc4c3Cl)c(F)c2[nH]1 (stereo partly shown) [Compound 128] | – | > 7.70 | – | – | – | 6.40 to 7.00 | > 7.70 | > 7.70
7 | Cc1nc2ccc(Oc3ccc4ncc(-c5cnn(C[C@@H](C)O)c5)nc4c3Cl)c(F)c2[nH]1 [Compound 130] | > 7.70 | – | > 7.70 | 6.40 to 7.00 | > 7.70 | – | – | –
8 | Cc1nc2ccc(Oc3ccc4ncc(-c5cnn(CC(C)(C)O)c5)nc4c3Cl)c(F)c2[nH]1 [Compound 131] | > 7.70 | – | > 7.70 | 6.40 to 7.00 | > 7.70 | – | – | –
9 | Cc1nc2ccc(Oc3ccc4ncc(-c5cnn(C6CCNC7(CC7)C6)c5)nc4c3Cl)c(F)c2[nH]1 (stereo not shown) [Compound 139] | > 7.70 | – | 7.00 to 7.70 | 7.00 to 7.70 | > 7.70 | – | – | –
10 | Cc1nc2ccc(Oc3ccc4ncc(-c5cnn(CC6(O)CCC6)c5)nc4c3Cl)c(F)c2[nH]1 [Compound 140] | 7.00 to 7.70 | – | 7.00 to 7.70 | ≤ 6.40 | 7.00 to 7.70 | – | – | –
11 | Cc1nc2ccc(Oc3ccc4ncc(-c5cnn(C(=O)OC(C)C)c5)nc4c3Cl)c(F)c2[nH]1 [Compound 141] | 7.00 to 7.70 | – | 6.40 to 7.00 | ≤ 6.40 | 6.40 to 7.00 | – | – | –
12 | Cc1nc2ccc(Oc3ccc4ncc(-c5cnn([C@H]6C[C@H](O)C6)c5)nc4c3Cl)c(F)c2[nH]1 [Compound 143] | 6.40 to 7.00 | – | ≤ 6.40 | ≤ 6.40 | 6.40 to 7.00 | – | – | –
13 | Cc1nc2ccc(Oc3ccc4ncc(-c5cnn(CC(O)C(F)(F)F)c5)nc4c3Cl)c(F)c2[nH]1 (stereo not shown) [Compound 144] | 7.00 to 7.70 | – | ≤ 6.40 | ≤ 6.40 | 6.40 to 7.00 | – | – | –
14 | Cc1nc2ccc(Oc3ccc4ncc(-c5cnn(Cc6ncc7n6CCOC7)c5)nc4c3Cl)c(F)c2[nH]1 [Compound 145] | 7.00 to 7.70 | – | ≤ 6.40 | ≤ 6.40 | 6.40 to 7.00 | – | – | –
15 | Cc1nc2ccc(Oc3ccc4ncc(-c5cnn(CC6(O)CCC6)c5)nc4c3Cl)cc2[nH]1 [Compound 146] | 7.00 to 7.70 | – | 7.00 to 7.70 | ≤ 6.40 | 7.00 to 7.70 | – | – | –
16 | Cc1nc2ccc(Oc3ccc4ncc(-c5cnn(C(C)(C)C6CC(F)(F)C6)c5)nc4c3Cl)cc2[nH]1 [Compound 147] | 6.40 to 7.00 | – | 6.40 to 7.00 | ≤ 6.40 | 7.00 to 7.70 | – | – | –
17 | Cc1nc2ccc(Oc3ccc4ncc(-c5cnn(C6CC7COCC(C6)N7)c5)nc4c3Cl)cc2[nH]1 (stereo not shown) [Compound 187] | 7.00 to 7.70 | – | 7.00 to 7.70 | ≤ 6.40 | 7.00 to 7.70 | – | – | –

More lines, main results first:

Row | pIC50 ([1]; Homo sapiens) | pIC50 [1] | SMILES | pIC50 ([2]; UMUC14, 72 h) | pIC50 ([3]; Homo sapiens, DMS-114, 72 h) | pIC50 [4, 5] | pIC50 ([3]; 72 hours) | pIC50 ([2]; 72 hours) | pIC50 ([4]; RT112 cells)
18 | > 7.70 | – | Cc1nc2ccc(Oc3ccc4ncc(-c5cnn([C@H]6C[C@@H](O)C6)c5)nc4c3Cl)c(F)c2[nH]1 [Compound 148] | > 7.70 | 7.00 to 7.70 | > 7.70 | – | – | –
19 | > 7.70 | – | Cc1nc2ccc(Oc3ccc4ncc(-c5cnn([C@H]6C[C@](C)(O)C6)c5)nc4c3Cl)c(F)c2[nH]1 [Compound 149] | > 7.70 | 6.40 to 7.00 | > 7.70 | – | – | –
20 | 7.00 to 7.70 | – | Cc1nc2ccc(Oc3ccc4ncc(-c5cnn(C(C)(C)C6CC(=O)C6)c5)nc4c3Cl)cc2[nH]1 [Compound 150] | 7.00 to 7.70 | ≤ 6.40 | 7.00 to 7.70 | – | – | –
21 | > 7.70 | – | Cc1nc2ccc(Oc3ccc4ncc(-c5cnn([C@H]6C[C@@](C)(O)C6)c5)nc4c3Cl)c(F)c2[nH]1 [Compound 151] | > 7.70 | 7.00 to 7.70 | > 7.70 | – | – | –
22 | 7.00 to 7.70 | – | Cc1nc2ccc(Oc3ccc4ncc(-c5cnn(CC6CCC(F)(F)CC6)c5)nc4c3Cl)c(F)c2[nH]1 [Compound 152] | 7.00 to 7.70 | 6.40 to 7.00 | 7.00 to 7.70 | – | – | –
23 | 7.00 to 7.70 | – | Cc1nc2ccc(Oc3ccc4ncc(-c5cnn(C6CCC(F)(F)CC6)c5)nc4c3Cl)c(F)c2[nH]1 [Compound 153] | 7.00 to 7.70 | 6.40 to 7.00 | 7.00 to 7.70 | – | – | –
24 | > 7.70 | – | Cc1nc2ccc(Oc3ccc4ncc(-c5cnn(CC6CC(F)(F)C6)c5)nc4c3C3=CCOC3)cc2[nH]1 [Compound 179] | > 7.70 | 6.40 to 7.00 | > 7.70 | – | – | –
25 | 6.40 to 7.00 | – | Cc1nc2ccc(Oc3ccc4ncc(-c5cnn(C6CN(C(=O)N7CC(O)C7)C6)c5)nc4c3Cl)cc2[nH]1 [Compound 183] | 6.40 to 7.00 | ≤ 6.40 | 6.40 to 7.00 | – | – | –
26 | 7.00 to 7.70 | – | Cc1nc2ccc(Oc3ccc4ncc(-c5cnn(C6CN(C(=O)N(C)C)C6)c5)nc4c3Cl)cc2[nH]1 [Compound 184] | 7.00 to 7.70 | ≤ 6.40 | 7.00 to 7.70 | – | – | –
27 | 7.00 to 7.70 | – | Cc1nc2ccc(Oc3ccc4ncc(-c5cnn(C6CN(C(=O)N7CCC7)C6)c5)nc4c3Cl)cc2[nH]1 [Compound 185] | 7.00 to 7.70 | ≤ 6.40 | 7.00 to 7.70 | – | – | –
28 | ≤ 6.40 | – | Cc1nc2ccc(Oc3ccc4ncc(-c5cnn(C6CCC(F)(F)CC6)c5)nc4c3Cl)cc2o1 [Compound 186] | ≤ 6.40 | ≤ 6.40 | ≤ 6.40 | – | – | –
29 | 7.00 to 7.70 | – | Cc1nc2ccc(Oc3ccc4ncc(-c5cnn(CC(=O)N6CCOC(C)(C)C6)c5)nc4c3Cl)cc2[nH]1 [Compound 188] | 7.00 to 7.70 | ≤ 6.40 | 7.00 to 7.70 | – | – | –
30 | 7.00 to 7.70 | – | Cc1nc2ccc(Oc3ccc4ncc(-c5cnn(C6CCN(C(=O)N7CC(O)C7)CC6)c5)nc4c3Cl)cc2[nH]1 [Compound 189] | 7.00 to 7.70 | ≤ 6.40 | 7.00 to 7.70 | – | – | –
31 | ≤ 6.40 | – | Cc1nc2ccc(Oc3ccc4ncc(-c5cnn(C6CN(c7cccc(N(C)C)n7)C6)c5)nc4c3Cl)cc2[nH]1 [Compound 190] | ≤ 6.40 | ≤ 6.40 | ≤ 6.40 | – | – | –
32 | 6.40 to 7.00 | – | Cc1nc2ccc(Oc3ccc4ncc(-c5cnn(C6CN(c7ccccn7)C6)c5)nc4c3Cl)cc2[nH]1 [Compound 191] | 6.40 to 7.00 | ≤ 6.40 | 6.40 to 7.00 | – | – | –
33 | 7.00 to 7.70 | – | Cc1nc2ccc(Oc3ccc4ncc(-c5cnn(CC6CCNS(=O)(=O)C6)c5)nc4c3Cl)cc2[nH]1 (stereo not shown) [Compound 192] | 7.00 to 7.70 | ≤ 6.40 | 7.00 to 7.70 | – | – | –
34 | 6.40 to 7.00 | – | Cc1nc2ccc(Oc3ccc4ncc(-c5cnn(CC(=O)N6C[C@@H](C)O[C@@H](C)C6)c5)nc4c3Cl)cc2[nH]1 [Compound 193] | 6.40 to 7.00 | ≤ 6.40 | 7.00 to 7.70 | – | – | –
35 | 6.40 to 7.00 | – | Cc1nc2ccc(Oc3ccc4ncc(-c5cnn(C6CCN(c7ccccn7)CC6)c5)nc4c3Cl)cc2[nH]1 [Compound 194] | 6.40 to 7.00 | ≤ 6.40 | 6.40 to 7.00 | – | – | –
36 | 7.00 to 7.70 | – | Cc1nc2ccc(Oc3ccc4ncc(-c5cnn(C(C)(C)C(=O)C6CC[C@H](F)C6)c5)nc4c3Cl)cc2[nH]1 (stereo partly shown) [Compound 195] | 7.00 to 7.70 | ≤ 6.40 | 7.00 to 7.70 | – | – | –
37 | 6.40 to 7.00 | – | Cc1nc2ccc(Oc3ccc4ncc(-c5cnn(C6CN(c7cncc(F)c7)C6)c5)nc4c3Cl)cc2[nH]1 [Compound 196] | 6.40 to 7.00 | ≤ 6.40 | 6.40 to 7.00 | – | – | –
38 | 6.40 to 7.00 | – | Cc1nc2ccc(Oc3ccc4ncc(-c5cnn(C6CCN(c7cncc(F)c7)CC6)c5)nc4c3Cl)cc2[nH]1 [Compound 197] | 6.40 to 7.00 | ≤ 6.40 | 7.00 to 7.70 | – | – | –
39 | 6.40 to 7.00 | – | Cc1nc2ccc(Oc3ccc4ncc(-c5cnn(CCN6CC(O)C6)c5)nc4c3Cl)cc2[nH]1 [Compound 198] | 6.40 to 7.00 | ≤ 6.40 | 7.00 to 7.70 | – | – | –
40 | 6.40 to 7.00 | – | C=C(F)/C=C/n1cc(-c2cnc3ccc(Oc4ccc5nc(C)[nH]c5c4)c(Cl)c3n2)cn1 [Compound 199] | 6.40 to 7.00 | ≤ 6.40 | 6.40 to 7.00 | – | – | –
